System: subjects with moderate-to-severe plaque psoriasis
Test: Safety, adverse events, Example 2 through Week 56
Format: in vivo, human
Settings: 100 mg BID
From the text: The LTE safety analysis was based on randomized participants in Example who entered the present long-term extension study and received at least one dose of study intervention (including a partial dose) during the study period.

CC(=O)NCCCC[C@@H]1NC(=O)[C@H](Cc2c[nH]c3c(C)cccc23)NC(=O)[C@H]([C@@H](C)O)NC(=O)[C@H](CC(N)=O)NC(=O)[C@@H](NC(C)=O)C(C)(C)SSC(C)(C)[C@@H](C(=O)N[C@@H](Cc2ccc(OCCN)cc2)C(=O)N[C@@H](Cc2ccc3ccccc3c2)C(=O)NC2(C(=O)N[C@@H](CCC(=O)O)C(=O)N[C@@H](CC(N)=O)C(=O)N[C@@H](Cc3cccnc3)C(=O)N(C)CC(N)=O)CCOCC2)NC1=O [IL-23 receptor antagonist peptide, Ac-[Pen]*-N-T-[W(7-Me)]-[Lys(Ac)]-[Pen]*-Phe[4-(2-aminoethoxy)]-[2-Nal]-[THP]-E-N-[3-Pal]-Sarc-NH2 (*[Pen]-[Pen]* formdisulfidebond)]
Subjects with treatment-emergent AE: Headache (Week 16-56): 0 | Subjects with treatment-emergent AE: Investigations (Week 16-56): 4 | Subjects with treatment-emergent AE: Meniscus injury (Week 16-56): 0 | Subjects with treatment-emergent AE: Sinusitis (Week 16-56): 0 | Subjects with treatment-emergent AE: Vomiting (Week 16-56): 0 | Subjects with treatment-emergent serious AE: Cardiac disorders (Week 16-56): 0 | Subjects with treatment-emergent serious AE: Cerebrovascular accident (Week 16-56): 0 | Subjects with treatment-emergent serious AE: Coronary artery disease (Week 16-56): 0 | Subjects with treatment-emergent serious AE: Diverticulitis (Week 16-56): 0 | Subjects with treatment-emergent serious AE: Foot deformity (Week 16-56): 0 | Subjects with treatment-emergent serious AE: General disorders and administration site conditions (Week 16-56): 0 | Subjects with treatment-emergent serious AE: Infections and infestations (Week 16-56): 0 | Subjects with treatment-emergent serious AE: Injury, poisoning and procedural complications (Week 16-56): 0 | Subjects with treatment-emergent serious AE: Intervertebral disc protrusion (Week 16-56): 0 | Subjects with treatment-emergent serious AE: Ligament injury (Week 16-56): 0 | Subjects with treatment-emergent serious AE: Musculoskeletal and connective tissue disorders (Week 16-56): 0 | Subjects with treatment-emergent serious AE: Nervous system disorders (Week 16-56): 0 | Subjects with treatment-emergent serious AE: Non-cardiac chest pain (Week 16-56): 0 | Subjects with treatment-emergent serious AE: Respiratory, thoracic and mediastinal disorders (Week 16-56): 0 | Subjects with treatment-emergent serious AE: Tonsillar hypertrophy (Week 16-56): 0 | Subjects with treatment-emergent serious AE: Ventricular dysfunction (Week 16-56): 0 | Acrochordon: number of subjects (through Week 56): 0 | Actinic keratosis: number of subjects (through Week 56): 0 | Alopecia: number of subjects (through Week 56): 0 | Asthenia: number of subjects (through Week 56): 0 | Asthma: number of subjects (through Week 56): 0 | Atrioventricular block first degree: number of subjects (through Week 56): 0 | Basal cell carcinoma: number of subjects (through Week 56): 0 | Blood and lymphatic system disorders: % of subjects (through Week 56): (2.4%) | Blood and lymphatic system disorders: number of subjects (through Week 56): 1 | Bronchitis chronic: number of subjects (through Week 56): 0 | Bundle branch block right: % of subjects (through Week 56): (2.4%) | Bundle branch block right: number of subjects (through Week 56): 1 | Cardiac disorders: % of subjects (through Week 56): (2.4%) | Cardiac disorders: number of subjects (through Week 56): 1 | Chills: number of subjects (through Week 56): 0 | Cholelithiasis: number of subjects (through Week 56): 0 | Chronic obstructive pulmonary disease: number of subjects (through Week 56): 0 | Coronary artery disease: number of subjects (through Week 56): 0 | Cough: % of subjects (through Week 56): (4.8%) | Cough: number of subjects (through Week 56): 2 | Decreased appetite: number of subjects (through Week 56): 0 | Depression: % of subjects (through Week 56): (2.4%) | Depression: number of subjects (through Week 56): 1 | Dermal cyst: number of subjects (through Week 56): 0 | Dermatitis acneiform: number of subjects (through Week 56): 0 | Dermatitis contact: % of subjects (through Week 56): (2.4%) | Dermatitis contact: number of subjects (through Week 56): 1 | Diabetes mellitus: number of subjects (through Week 56): 0 | Diffuse alopecia: number of subjects (through Week 56): 0 | Dysuria: number of subjects (through Week 56): 0 | Ear and labyrinth disorders: % of subjects (through Week 56): (2.4%) | Ear and labyrinth disorders: number of subjects (through Week 56): 1 | Endocrine disorders: number of subjects (through Week 56): 0 | Eye disorders: number of subjects (through Week 56): 0 | Eyelid skin dryness: number of subjects (through Week 56): 0 | Fatigue: % of subjects (through Week 56): (4.8%) | Fatigue: number of subjects (through Week 56): 2 | General disorders and administration site conditions: % of subjects (through Week 56): (9.5%) | General disorders and administration site conditions: number of subjects (through Week 56): 4 | Goiter: number of subjects (through Week 56): 0 | Haemochromatosis: number of subjects (through Week 56): 0 | Hand dermatitis: number of subjects (through Week 56): 0 | Hematuria: number of subjects (through Week 56): 0 | Hepatobiliary disorders: number of subjects (through Week 56): 0 | Hypercholesterolemia: number of subjects (through Week 56): 0 | Hyperglycemia: % of subjects (through Week 56): (4.8%) | Hyperglycemia: number of subjects (through Week 56): 2 | Hyperlipidemia: number of subjects (through Week 56): 0 | Hypertension: % of subjects (through Week 56): (4.8%) | Hypertension: number of subjects (through Week 56): 2 | Hypertransaminasemia: number of subjects (through Week 56): 0 | Hypertriglyceridemia: number of subjects (through Week 56): 0 | Hypoacusis: % of subjects (through Week 56): (2.4%) | Hypoacusis: number of subjects (through Week 56): 1 | Immune system disorders: % of subjects (through Week 56): (2.4%) | Immune system disorders: number of subjects (through Week 56): 1 | Influenza like illness: number of subjects (through Week 56): 0 | Insomnia: number of subjects (through Week 56): 0 | Intertrigo: % of subjects (through Week 56): (2.4%) | Intertrigo: number of subjects (through Week 56): 1 | Ketonuria: % of subjects (through Week 56): (2.4%) | Ketonuria: number of subjects (through Week 56): 1 | Leukocyturia: number of subjects (through Week 56): 0 | Leukopenia: number of subjects (through Week 56): 0 | Libido decreased: number of subjects (through Week 56): 0 | Liver disorder: number of subjects (through Week 56): 0 | Lymphopenia: number of subjects (through Week 56): 0 | Menopause: number of subjects (through Week 56): 0 | Metabolism and nutrition disorders: % of subjects (through Week 56): (4.8%) | Metabolism and nutrition disorders: number of subjects (through Week 56): 2 | Neoplasms benign, malignant and unspecified (incl cysts and polyps): % of subjects (through Week 56): (4.8%) | Neoplasms benign, malignant and unspecified (incl cysts and polyps): number of subjects (through Week 56): 2 | Nephrolithiasis: number of subjects (through Week 56): 0 | Neutropenia: number of subjects (through Week 56): 0 | Night sweats: number of subjects (through Week 56): 0 | Non-cardiac chest pain: number of subjects (through Week 56): 0 | Ocular cyst: number of subjects (through Week 56): 0 | Oedema peripheral: % of subjects (through Week 56): (4.8%) | Oedema peripheral: number of subjects (through Week 56): 2 | Oropharyngeal pain: number of subjects (through Week 56): 0 | Procedural pain: % of subjects (through Week 56): (2.4%) | Procedural pain: number of subjects (through Week 56): 1 | Productive cough: % of subjects (through Week 56): (2.4%) | Productive cough: number of subjects (through Week 56): 1 | Proteinuria: % of subjects (through Week 56): (2.4%) | Proteinuria: number of subjects (through Week 56): 1 | Pruritus: number of subjects (through Week 56): 0 | Psoriasis: % of subjects (through Week 56): (4.8%) | Psoriasis: number of subjects (through Week 56): 2 | Psychiatric disorders: % of subjects (through Week 56): (2.4%) | Psychiatric disorders: number of subjects (through Week 56): 1 | Pyrexia: % of subjects (through Week 56): (2.4%) | Pyrexia: number of subjects (through Week 56): 1 | Rash pruritic: number of subjects (through Week 56): 0 | Renal and urinary disorders: % of subjects (through Week 56): (4.8%) | Renal and urinary disorders: number of subjects (through Week 56): 2 | Renal mass: number of subjects (through Week 56): 0 | Respiratory, thoracic and mediastinal disorders: % of subjects (through Week 56): (9.5%) | Respiratory, thoracic and mediastinal disorders: number of subjects (through Week 56): 4 | Retinal vein occlusion: number of subjects (through Week 56): 0

Source: patent publication US20260232767A1, “INTERLEUKIN-23 RECEPTOR ANTAGONIST PEPTIDES FOR USE IN THE TREATMENT OF PSORIASIS” (Janssen Pharmaceutica NV, priority 2023, published 2026)
